Results published in PMC9048505 (RSC Advances, 2020).

Assays:
HCT-116 = assay: In vitro anti-proliferative activity, MTT assay, HCT-116; type: cell-based, human; conditions: for IC50: Homo sapiens, HCT-116, MTT, 24 h treatment, mean ± S.D. of three separate experiments
Experimental: (§1) The cells were obtained from ATCC (American Type Culture Collection) via the Holding company for biological products and vaccines (VACSERA) (Cairo, Egypt). […] After incubation period, the cell lines were treated with different concentration of the synthesized compounds and incubated for 24 h. After treatment by 24 h, 20 μL of MTT solution (5 mg mL^−1) was added and incubated for 4 h. Dimethyl sulfoxide (100 μL) was added into each well to dissolve the formed purple formazan. […] The relative cell viability in percentage was calculated as (A570 of treated samples/A570 of untreated sample) X 100.

HepG-2 = assay: In vitro anti-proliferative activity, MTT assay, HepG-2; type: cell-based, human; conditions: for IC50: Homo sapiens, HepG2, MTT, 24 h treatment, mean ± S.D. of three separate experiments
Experimental: as §1

HepG-2 cells [1] = assay: Annexin V-FITC apoptosis assay; type: cell-based, human; conditions: HepG-2, 5a at 2.5 μM for 24 h
Experimental: To further confirm Apoptotic effect of compound 5a in HepG-2 cells, Annexin V and PI double staining assay was performed.[55] In this test, HepG-2 cells were incubated with compound 5a at concentration of 2.5 μM for 24 h.
The effect of the most cytotoxic compound 5a on apoptosis induction was analyzed using Annexin V-FITC/PI apoptosis detection kit. In this test, HepG-2 cells were stained with Annexin V fluorescein isothiocyanate (FITC) and counterstained with propidium iodide (PI). Then, HepG-2 cells in a density of 2 × 10^5 per well were incubated with compound 5a for […]. Next, the cells were trypsinized, washed with phosphate-buffered saline (PBS), and stained for 15 min at 37 °C in the dark. Finally, FACS Caliber flow cytometer was used in analysis process.[55]

purified bovine tubulin = target: T1, purified bovine tubulin (Bos taurus, UniProt P81947+Q6B856); assay: In vitro tubulin polymerization assay; type: biochemical; conditions: purified bovine tubulin 10 μM, 37 °C; read-out: IC50 Tubulin polymerization inhibition
T1 construct: purified bovine tubulin (10 μM); from tissue; host or cells: bovine
Experimental: The inhibition assay on microtubule polymerization was evaluated turbidimetrically using a fluorescent plate reader.[52]

MCF-7 = assay: In vitro anti-proliferative activity, MTT assay, MCF-7; type: cell-based, human; conditions: for IC50: Homo sapiens, MCF7, MTT, 24 h treatment, mean ± S.D. of three separate experiments
Experimental: as §1

HepG-2 cells [2] = assay: Cell cycle analysis (PI staining, flow cytometry); type: cell-based, human
Experimental: To gain a better insight into the impact of compound 5a on cancer cell growth inhibition, its impact on cell cycle distribution and apoptosis induction was assessed using HepG-2 cells according to the method outlined by Wang et al.[53] In fact, anticancer agents hinder cancer cell growth and multiplication by arresting cell division at distinct checkpoints, and that cells resist apoptosis are highly resistant to cancer treatment.[54]
HepG-2 cells were seeded at density of 2 × 10^5 cells per well and incubated for 24 h in six-well plates. Fetal bovine serum (FBS, 10%) was added, after that cells were incubated at 37 °C and 5% CO2. The medium was replaced with (DMSO 1% v/v) containing the 2.5 μM of compound 5a, then incubated for 48 h, washed with cold phosphate buffered saline (PBS), fixed with 70% ethanol, rinsed with PBS then stained with the DNA fluorochrome PI, kept for 15 min at 37 °C. Then samples were analyzed with a FACS Caliber flow cytometer.[53]

T1 sequence (Q6B856 whole entry): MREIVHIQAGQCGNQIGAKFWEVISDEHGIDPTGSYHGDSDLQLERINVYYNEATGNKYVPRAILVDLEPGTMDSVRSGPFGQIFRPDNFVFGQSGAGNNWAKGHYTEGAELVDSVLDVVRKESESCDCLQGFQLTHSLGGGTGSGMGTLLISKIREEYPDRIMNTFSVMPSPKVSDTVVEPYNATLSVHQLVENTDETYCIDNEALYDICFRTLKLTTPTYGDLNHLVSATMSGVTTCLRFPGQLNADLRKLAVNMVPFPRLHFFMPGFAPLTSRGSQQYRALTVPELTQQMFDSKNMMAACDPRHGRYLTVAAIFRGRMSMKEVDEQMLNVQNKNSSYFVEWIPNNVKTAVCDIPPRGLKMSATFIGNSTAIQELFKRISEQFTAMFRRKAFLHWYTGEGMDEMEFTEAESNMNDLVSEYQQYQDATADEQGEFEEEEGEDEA
T1 sequence (P81947 whole entry): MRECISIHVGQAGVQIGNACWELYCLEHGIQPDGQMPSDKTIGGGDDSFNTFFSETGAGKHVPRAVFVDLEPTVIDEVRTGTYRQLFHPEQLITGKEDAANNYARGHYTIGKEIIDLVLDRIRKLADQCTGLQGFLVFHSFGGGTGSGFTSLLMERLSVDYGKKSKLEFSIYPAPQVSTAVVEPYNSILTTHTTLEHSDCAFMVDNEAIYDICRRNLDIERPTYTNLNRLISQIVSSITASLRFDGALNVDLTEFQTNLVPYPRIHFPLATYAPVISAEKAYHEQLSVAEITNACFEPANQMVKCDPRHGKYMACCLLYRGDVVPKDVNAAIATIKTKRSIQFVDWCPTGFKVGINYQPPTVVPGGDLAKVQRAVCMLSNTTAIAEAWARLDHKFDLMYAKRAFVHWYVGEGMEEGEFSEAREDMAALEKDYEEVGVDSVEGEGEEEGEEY

Row | IC50 (HCT-116) [µM] | IC50 (purified bovine tubulin) [µM] | melting point [°C] | IC50 (MCF-7) [µM] | SMILES | times as active as colchicine against HCT-116 (HCT-116; ratio of IC50 values) [times] | IC50 (HepG-2) [µM] | times as active as colchicine against HepG-2 (HepG-2; ratio of IC50 values) [times] | Necrosis (HepG-2 cells [1]; control 0.48) [%] | Apoptosis Late (HepG-2 cells [1]; control 0.64) [%] | Apoptosis Early (HepG-2 cells [1]; control 1.02) [%] | Apoptosis Total (HepG-2 cells [1]; control 2.14) [%] | times as active as colchicine against MCF-7 (MCF-7; ratio of IC50 values) [times] | Cell cycle distribution % Pre-G1 (HepG-2 cells [2]; HepG-2, 5a at 2.5 μM for 48 h, control 2.14) [%] | Cell cycle distribution % G2-M (HepG-2 cells [2]; HepG-2, 5a at 2.5 μM for 48 h, control 5.09) [%] | Cell cycle distribution % S (HepG-2 cells [2]; HepG-2, 5a at 2.5 μM for 48 h, control 38.15) [%] | Cell cycle distribution % G0-G1 (HepG-2 cells [2]; HepG-2, 5a at 2.5 μM for 48 h, control 56.76) [%] | effect on cell cycle (HepG-2 cells [2]; HepG-2 cells)
1 | 15.6 ± 0.4 | 0.0478 ± 0.0021 | 293 to 295 | 22.7 ± 0.7 | C/C(=N\NC1=N/C(=C/c2ccc(O)cc2)C(=O)S1)c1ccco1 [Compound 8i, 2-(2-((E)-1-(Furan-2-yl)ethylidene)hydrazinyl)-4-((E)-4-hydroxybenzylid-ene)thiazol-5(4H)-one] |  | 12.5 ± 0.2 |  |  |  |  |  |  |  |  |  |  | 
2 | 10.28 ± 0.1 | 0.0132 ± 0.0009 | 282 to 284 | 7.89 ± 0.5 | C/C(=N\NC1=N/C(=C/c2ccc(O)cc2O)C(=O)S1)c1ccco1 [Compound 8l, 4-((E)-2,4-Dihydroxybenzylidene)-2-(2-((E)-1-(furan-2-yl)ethylidene) hydrazinyl) thiazol-5(4H)-one] |  | 3.73 ± 0.1 |  |  |  |  |  |  |  |  |  |  | 

Further lines, the molecule ahead of its results:

Row | SMILES | IC50 (HCT-116) [µM] | IC50 (purified bovine tubulin) [µM] | melting point [°C] | IC50 (MCF-7) [µM] | times as active as colchicine against HCT-116 (HCT-116; ratio of IC50 values) [times] | IC50 (HepG-2) [µM] | times as active as colchicine against HepG-2 (HepG-2; ratio of IC50 values) [times] | Necrosis (HepG-2 cells [1]; control 0.48) [%] | Apoptosis Late (HepG-2 cells [1]; control 0.64) [%] | Apoptosis Early (HepG-2 cells [1]; control 1.02) [%] | Apoptosis Total (HepG-2 cells [1]; control 2.14) [%] | times as active as colchicine against MCF-7 (MCF-7; ratio of IC50 values) [times] | Cell cycle distribution % Pre-G1 (HepG-2 cells [2]; HepG-2, 5a at 2.5 μM for 48 h, control 2.14) [%] | Cell cycle distribution % G2-M (HepG-2 cells [2]; HepG-2, 5a at 2.5 μM for 48 h, control 5.09) [%] | Cell cycle distribution % S (HepG-2 cells [2]; HepG-2, 5a at 2.5 μM for 48 h, control 38.15) [%] | Cell cycle distribution % G0-G1 (HepG-2 cells [2]; HepG-2, 5a at 2.5 μM for 48 h, control 56.76) [%] | effect on cell cycle (HepG-2 cells [2]; HepG-2 cells)
3 | C/C(=N\NC1=N/C(=C/c2cccs2)C(=O)S1)c1ccc(C)cc1 [Compound 5a, (E)-4-(Thiophen-2-ylmethylene)-2-(2-((E)-1-(p-tolyl)ethylidene)hydrazinyl) thiazol-5(4H)-one] | 6.41 ± 0.1 | 0.00952 ± 0.0003 | 202 to 204 | 4.51 ± 0.6 | 1.45 | 3.34 ± 0.1 | 2.23 | 1.54 | 5.54 | 8.25 | 15.33 | 2.32 | 15.33 | 20.55 | 39.28 | 40.17 | cell arrest at G2/M phase
4 | COc1ccc(/C=C2/N=C(N/N=C(\C)c3ccco3)SC2=O)cc1OC [Compound 8k, 4-((E)-3,4-Dimethoxybenzylidene)-2-(2-((E)-1-(furan-2-yl)ethylidene)hydra-zinyl)thiazol-5(4H)-one] | 5.55 ± 0.1 | 0.0135 ± 0.0008 | 240 to 242 | 9.15 ± 0.2 |  | 4.58 ± 0.1 |  |  |  |  |  |  |  |  |  |  | 
5 | C/C(=N\NC1=N/C(=C/c2cccs2)C(=O)S1)c1cccs1 [Compound 9a, (E)-2-(2-((E)-1-(Thiophen-2-yl)ethylidene)hydrazinyl)-4-(thiophen-2-ylmethylene)thiazol-5(4H)-one] | 24.2 ± 0.7 | 0.0391 ± 0.001 | 214 to 216 | 33.6 ± 0.9 |  | 21.9 ± 0.9 |  |  |  |  |  |  |  |  |  |  | 
